Data from patent publication US7727736B2, “Soluble phospholipids for use in clotting factor assays” (The University of North Carolina at Chapel Hill, priority 2003, dated 2010).

Legend:
[1] = biological target: T1, factor VIIIa-IXa complex (Homo sapiens, UniProt P00451+P00740); test: Activation of factor X by factor IXa and factor VIIIa; assay type: biochemical; conditions: in the presence of C6PS
T1 construct: 2.5 nM factor IXa and 10 nM factor VIIIa
Description: The rate of activation of factor X by 2.5 nM factor IXa and 10 nM factor VIIIa in the presence of 600 μM C6PS was monitored at different concentrations of factor X (FIG. 13). The KM for this reaction was 66 nM, which is similar to that obtained with 30% PS/PC membranes (45 nM) (Larson et al. (1996) J. Biol. Chem. 271 3869).

[2] = system: plasma; test: Activated partial thromboplastin time (aPTT) assay; assay type: biochemical
Description: Activated partial thromboplastin time assays were done using an optical detection method to determine clotting time. Two reaction mixtures were created. Mixture A had kaolin in concentrations ranging from 50 g/L to 500 g/L and either phospholipid vesicles (ranging from 0.67 to 240 μM) or C6PS (ranging from 5 μM to 5250 μM) in buffer of 20 mM HEPES (pH 7.4), 150 mM NaCl. Mixture B was 25 mM calcium chloride in a buffer of 20 mM HEPES (pH 7.4), 150 mM NaCl. Plasma, Mixture A, and Mixture B were all incubated at 37° C. for 3 minutes. Mixture A was added to plasma and incubated for 3 minutes at 37° C. Buffer B was added and the optical density was measured. Clotting was detected as an increase in absorbance.
As expected, lipid vesicles shortened the Kaolin induced clotting time in a dose-dependent fashion by as much as 100 seconds. C6PS gave a dose dependent shortening in the clotting time, but the largest decrease was 13 seconds. We speculated that the Kaolin might interfere with C6PS. Since the purpose of Kaolin is to activate the contact factors of coagulation (high molecular weight kininogen, factor XII, and factor XI), we substituted 30 nM activated factor XI for Kaolin in the assay described above.

[3] = biological target: FXa (Homo sapiens, UniProt P00742); test: Native gel electrophoresis (Ferguson analysis), C6PS bound to FXa; assay type: binding; parameters: Human prothrombin and factor Xa; purchased Hematologic Technologies Inc. (Essex Junction, Vt.); conditions: 400 μM C6PS
Description: Native Gel Electrophoresis. This method has been used to document the association of blood coagulation proteins in solution (Majumder, et al. (2002) supra; Majumder, et al. (2003) supra). A mixture of 1 nM FXa and 1 nM FVa was incubated at 37° C. for 2 minutes in the presence and absence of 400 μM C6PS and the two samples were run together with known marker proteins (270 kiloDalton-14.2 kiloDalton; SIGMA, St. Louis, Mo.) on five gels (5, 6, 6.5, 7, and 8% total acrylamide with bisacrylamide/acrylamide being 1/29 in all cases) in a BIORAD® MINI-PROTEAN® II minigel apparatus (BIORAD® Corp., Hercules, Calif.) and stained with colloidal Coomassie blue (Mitra, et al. (1994) supra). FXa and FVa, at these same concentrations and in the presence of 400 μM C6PS, were run separately as controls. Protein retardation coefficients, which depend to a good approximation only on the hydrodynamic size and shape of the protein, were determined for both the marker and unknown proteins (Ferguson (1964) Metabolism 13:985-1002). A log-log plot of the retardation coefficient against the molecular weights of the marker proteins produced a linear curve from which the molecular weight of the FVa•FXa complex was determined from its measured retardation coefficient (Bryan (1977) Anal. Biochem. 78(2):513-9). […]

FXa, sequence (P00742 41-179 limits assumed): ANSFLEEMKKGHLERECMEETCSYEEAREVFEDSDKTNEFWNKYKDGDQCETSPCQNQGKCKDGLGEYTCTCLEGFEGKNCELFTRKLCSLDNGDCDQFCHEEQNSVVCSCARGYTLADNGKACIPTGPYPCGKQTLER
FXa, sequence (P00742 235-488 limits assumed): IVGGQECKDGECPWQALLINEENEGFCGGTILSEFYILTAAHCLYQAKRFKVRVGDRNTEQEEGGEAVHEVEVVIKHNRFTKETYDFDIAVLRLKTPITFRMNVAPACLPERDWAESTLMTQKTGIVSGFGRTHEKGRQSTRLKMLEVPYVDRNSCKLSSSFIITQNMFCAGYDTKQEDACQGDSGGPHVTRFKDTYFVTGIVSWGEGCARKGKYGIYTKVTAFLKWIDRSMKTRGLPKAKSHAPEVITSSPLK
T1 sequence (P00740 47-191 limits assumed): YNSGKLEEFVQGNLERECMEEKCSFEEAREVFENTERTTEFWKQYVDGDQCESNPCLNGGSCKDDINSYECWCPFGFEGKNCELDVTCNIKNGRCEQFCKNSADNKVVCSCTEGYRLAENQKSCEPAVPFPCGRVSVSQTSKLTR
T1 sequence (P00740 227-461 limits assumed): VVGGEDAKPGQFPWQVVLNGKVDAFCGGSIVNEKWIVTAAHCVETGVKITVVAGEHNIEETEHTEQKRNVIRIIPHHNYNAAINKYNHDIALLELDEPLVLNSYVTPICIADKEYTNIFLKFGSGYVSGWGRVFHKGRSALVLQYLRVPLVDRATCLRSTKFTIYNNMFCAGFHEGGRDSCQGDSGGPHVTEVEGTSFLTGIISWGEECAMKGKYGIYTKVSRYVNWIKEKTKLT
T1 sequence (P00451 20-391 limits assumed): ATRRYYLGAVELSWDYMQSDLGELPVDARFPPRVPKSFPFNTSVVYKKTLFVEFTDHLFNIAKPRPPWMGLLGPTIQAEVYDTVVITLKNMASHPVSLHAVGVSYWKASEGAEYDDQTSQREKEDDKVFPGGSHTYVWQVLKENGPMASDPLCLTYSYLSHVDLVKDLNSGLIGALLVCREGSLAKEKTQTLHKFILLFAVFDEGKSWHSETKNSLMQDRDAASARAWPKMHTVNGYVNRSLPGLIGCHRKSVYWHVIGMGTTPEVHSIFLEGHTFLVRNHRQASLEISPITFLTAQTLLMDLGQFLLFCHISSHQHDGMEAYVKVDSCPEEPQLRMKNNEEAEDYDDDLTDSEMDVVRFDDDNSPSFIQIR
T1 sequence (P00451 392-759 limits assumed): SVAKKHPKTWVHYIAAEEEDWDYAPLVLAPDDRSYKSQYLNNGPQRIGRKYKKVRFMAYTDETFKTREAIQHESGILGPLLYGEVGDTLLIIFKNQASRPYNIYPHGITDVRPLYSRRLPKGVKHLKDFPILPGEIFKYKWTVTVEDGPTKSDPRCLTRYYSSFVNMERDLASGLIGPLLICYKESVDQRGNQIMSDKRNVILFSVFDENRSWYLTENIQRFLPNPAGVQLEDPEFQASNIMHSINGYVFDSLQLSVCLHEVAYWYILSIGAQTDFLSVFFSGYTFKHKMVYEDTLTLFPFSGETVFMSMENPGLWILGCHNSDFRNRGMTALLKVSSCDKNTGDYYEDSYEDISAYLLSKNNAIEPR
T1 sequence (P00451 1709-2351 limits assumed): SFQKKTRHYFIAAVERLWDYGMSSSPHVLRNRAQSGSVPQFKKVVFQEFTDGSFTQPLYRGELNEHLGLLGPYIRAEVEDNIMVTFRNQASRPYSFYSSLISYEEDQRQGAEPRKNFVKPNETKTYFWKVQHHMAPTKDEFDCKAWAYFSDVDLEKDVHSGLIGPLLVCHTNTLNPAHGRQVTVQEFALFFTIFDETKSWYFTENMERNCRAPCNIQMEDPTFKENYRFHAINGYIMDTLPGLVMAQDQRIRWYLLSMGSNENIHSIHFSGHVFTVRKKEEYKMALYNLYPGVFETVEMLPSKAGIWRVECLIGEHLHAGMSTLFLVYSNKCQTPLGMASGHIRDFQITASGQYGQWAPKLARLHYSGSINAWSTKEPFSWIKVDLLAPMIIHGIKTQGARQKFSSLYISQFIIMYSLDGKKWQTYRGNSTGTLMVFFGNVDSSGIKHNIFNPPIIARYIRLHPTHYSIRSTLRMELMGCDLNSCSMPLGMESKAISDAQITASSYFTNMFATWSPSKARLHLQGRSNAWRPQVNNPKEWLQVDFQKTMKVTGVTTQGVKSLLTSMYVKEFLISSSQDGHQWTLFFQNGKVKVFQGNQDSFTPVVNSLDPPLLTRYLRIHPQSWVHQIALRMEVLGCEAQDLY

CCCCCC(=O)OC[C@H](COP(=O)(O)OC[C@H](N)C(=O)O)OC(=O)CCCCC [C6PS, 1,2-dicaproyl-sn-glycero-3-phospho-L-serine]
fold reduction of KM for factor X activation with the addition of VIIIa [1]: 5 fold
maximal shortening of clotting time ([2]; 30 nM activated factor XI substituted for Kaolin): 20 s
largest shortening of the Kaolin induced clotting time ([2]; Kaolin as activator): 13 s
molecules of C6PS bound to FXa from molecular mass [3]: 1.5 molecules
